Laboratory results as given in article PMC5581131, “The novel sphingosine-1-phosphate receptors antagonist AD2900 affects lymphocyte activation and inhibits T-cell entry into the lymph nodes” (Oncotarget, 2017).

Key:
[1] = test system: C57BL/6 mice; experiment: T, B and NK cell populations in blood, spleen and lymph nodes, FACS; assay type: in vivo, mouse
From the text: S1P receptors are differentially expressed by distinct immune cell populations. Since AD2900 is an antagonist to all S1P receptors, we next evaluated its influence on the localization of different murine lymphocyte populations. To achieve this aim, we performed FACS analysis of the blood (Figure 5A), spleen (Figure 5B), and lymph node cells (Figure 5C) using antibodies against surface markers of T cells, B cells, and NK cells (TCR-β, CD19, and CD49b, respectively). […] The NK cell count was elevated by 55.7% (4.741 ± 0.8621 × 10^6 cells/ml) after a 7-day treatment with AD2900. […] The trend in the B-cell change was opposite to that in the T- and NK cell changes in the lymph nodes.
Figure 5 AD2900 treatment affects the distribution of T cells, B cells, and NK cells in blood, spleen, and peripheral lymph nodes C57BL/6 mice were orally administered with AD2900 or FTY720, as shown in Figure 4. Leukocytes from blood, spleen, and pLNs were collected and stained with TCR-β, CD19, and CD49b fluorescent antibodies and then analyzed by FACS analysis. The percentages of TCR-β+ T cells (left panel), CD19+ B cells (central panel), and CD49b+ NK cells (right panel) of the total leukocytes from blood (A), spleen (B), and pLNs (C) are shown. The results of T and B cells are from 2 days’ experiments. The results of NK cells are from 2 and 7 days’ experiments. All the significances are compared to untreated healthy mice. Results summarize three independent experiments. Results of Student’s t-test:*(P < 0.05, two-tailed test), ** (P < 0.01, two-tailed test), *** (P < 0.001, two-tailed test), **** (P < 0.0001, two-tailed test).
Murine lymphocytes: The phenotype of murine lymphocytes was analyzed by flow cytometry using anti-CD3e-FITC, anti-CD19-PB, anti-CCR7-APC, anti-CD44-FITC, anti-CD62L-APC, and anti-TCR-β-PB (Biolegend, CA, USA).
To eliminate the red blood cells, RBC lysis buffer (Beit Haemek, Israel) or BD FACS lysing solution (BD Biosciences, CA, USA) was added into murine blood and splenocyte samples. Flow cytometry was performed using the MACSQuant® Analyzer (Miltenyi Biotech, Germany), and the data were analyzed using FCS Express V3 software.
C57BL/6 female mice aged 7–8 weeks were obtained from Harlan Laboratories (Jerusalem, Israel). The animal study was conducted under appropriate conditions and was approved by the Institutional Animal Care and Use Committee of the Hebrew University of Jerusalem in accordance with the national laws and regulations for the protection of animals. AD2900 was dissolved in 10% BSA (MP Biomedicals, CA, USA) in DDW at 1 mg/ml and then further diluted in 200 ml water to get final concentrations at 1.8, 2.7, or 3.6 mg/l. AD2900 and FTY720 were supplied ad libitum to the mice for 2 days or 7 days. At the end of the experiment, blood was collected, and the mice were sacrificed and tissues (lymph nodes and spleen) were harvested.

[2] = test system: Molt4; experiment: XTT viability assay, Molt4; assay type: cell-based, human; details: 1-day treatment, compared with Jurkat (>10 μM)
Protocol: Figure 1 AD2900 inhibits human lymphocyte proliferation in allogeneic activation (A, B) The levels of proliferative response of human peripheral blood lymphocytes (PBMCs) after 1-day pretreatment with different concentrations of AD2900, AD2750, YZ138, YZ158, and YZ297 (A) or AD2900, FTY720, and SEW2871 (B) were tested by human allogeneic mixed lymphocyte reaction (MLR) assay, followed by a [3H] thymidine incorporation analysis. (C) Apoptosis of AD2900-treated activated PBMCs was tested by AnnexinV-propidium iodide (PI) FACS analysis following 1-day AD2900 pretreatment and MLR. All the samples were compared to the untreated PBMC control. (D) IFN-γ secretion from activated PBMCs was tested by ELISA following a 1-day AD2900 pretreatment in MLR. On the 5th day of hMLR, supernatants were collected and assayed for the level of IFN-γ. (E) Jurkat cell viability after a 1-day treatment with different concentrations of AD2900, FTY720, and SEW2871 was tested by XTT viability assay. (F) H9, CEM/C1, and Molt4 cell viability after a 1-day treatment with different concentrations of AD2900 was tested by XTT viability assay. Graphs summarize the results of at least three independent experiments. Results of Student’s t-test: *(P < 0.05, two-tailed test), ** (P < 0.01, two-tailed test), *** (P < 0.001, two-tailed test), **** (P < 0.0001, two-tailed test). […]

## CCCCCCCCCCCCCCCCNC(CO)(CO)CO [AD2900]
[1]; 1.8 mg/l, 2-day treatment
  T cells in the blood, value in parentheses: 0.7488 ± 0.1641 × 10^6 cells/ml
  increase of average count of T cells in the blood: 81.9%
[1]; 2-day treatment
  T cells in the lymph nodes, value in parentheses: 0.7411 ± 0.2217 × 10^5 cells/ml
  T cells in the spleen, value in parentheses: 11.79 ± 3.64 × 10^6 cells/ml
  decrease of T-cell average count in the lymph nodes: 30%
  increase of average count of T cells in the spleen: 96.7%
[1]; 7-day treatment
  NK cells in the blood, value in parentheses: 0.3987 ± 0.0706 × 10^6 cells/ml
  NK cells in the lymph nodes, value in parentheses: 0.07852 ± 0.03572 × 10^5 cells/ml
  NK cells in the spleen, value in parentheses: 4.741 ± 0.8621 × 10^6 cells/ml
  decrease of NK cell count in the lymph nodes: 20.8%
  elevation of NK cell count in the spleen: 55.7%
  increase of average NK cell count in the blood: 52.1%
[1]; blood, spleen, lymph nodes
  B cell count in all the organs: not significantly influenced
[2]
  cell viability, Molt4: reduced cell viability could be detected even at lower concentrations
